From ChEMBL document CHEMBL4507292 (2021)

Experiments:
[1] = test system: Tyrosine-protein kinase ABL1 (Homo sapiens), P00519 [H396P]; conditions: Compound concentration 1000.0 nM
[2] = target: Ribosomal protein S6 kinase alpha-5 (Homo sapiens) (UniProt O75582); conditions: Compound concentration 1000.0 nM
[3] = target: Receptor-type tyrosine-protein kinase FLT3 (Homo sapiens) (UniProt P36888); conditions: Compound concentration 1000.0 nM
[4] = target: D(3) dopamine receptor (Homo sapiens) (UniProt P35462); conditions: Compound concentration 10.0 uM
[5] = target: Serine/threonine-protein kinase NLK (Homo sapiens) (UniProt Q9UBE8); conditions: Compound concentration 1000.0 nM
[6] = test system: Mast/stem cell growth factor receptor Kit (Homo sapiens), P10721 [D816H]; conditions: Compound concentration 1000.0 nM
[7] = target: Cytoplasmic tyrosine-protein kinase BMX (Homo sapiens) (UniProt P51813); conditions: Compound concentration 1000.0 nM
[8] = target: Serine/threonine-protein kinase 38 (Homo sapiens) (UniProt Q15208); conditions: Compound concentration 1000.0 nM
[9] = target: Sigma non-opioid intracellular receptor 1 (Homo sapiens, UniProt Q99720); test: GPCRScan assay: inhibition of Sigma 1; parameters: radioligand conc. used [nm] 4.0 – 5.0, parental cells HEKT
[10] = target: Death-associated protein kinase 3 (Homo sapiens) (UniProt O43293); conditions: Compound concentration 1000.0 nM
[11] = target: Cyclin-dependent kinase 2 (Homo sapiens) (UniProt P24941); conditions: Compound concentration 1000.0 nM
[12] = target: T1, 5-hydroxytryptamine receptor 3A (Homo sapiens) (UniProt P46098); conditions: Compound concentration 10.0 uM
T1 sequence (whole entry): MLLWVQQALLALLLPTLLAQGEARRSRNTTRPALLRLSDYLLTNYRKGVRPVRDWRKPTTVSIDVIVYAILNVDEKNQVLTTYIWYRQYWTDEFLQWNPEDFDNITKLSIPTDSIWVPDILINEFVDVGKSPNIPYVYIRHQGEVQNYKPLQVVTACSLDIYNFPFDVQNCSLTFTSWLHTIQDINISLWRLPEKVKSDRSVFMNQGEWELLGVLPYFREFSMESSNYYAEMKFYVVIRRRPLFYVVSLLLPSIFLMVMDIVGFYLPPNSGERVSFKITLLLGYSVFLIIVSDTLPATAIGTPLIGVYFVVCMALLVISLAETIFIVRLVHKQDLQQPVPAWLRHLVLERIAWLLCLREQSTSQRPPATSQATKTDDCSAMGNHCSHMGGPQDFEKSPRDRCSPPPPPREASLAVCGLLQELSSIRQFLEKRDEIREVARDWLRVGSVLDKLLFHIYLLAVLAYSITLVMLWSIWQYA

[13] = target: Ephrin type-B receptor 3 (Homo sapiens) (UniProt P54753); conditions: Compound concentration 1000.0 nM
[14] = target: MAP kinase-interacting serine/threonine-protein kinase 2 (Homo sapiens) (UniProt Q9HBH9); conditions: Compound concentration 1000.0 nM
[15] = target: RAC-gamma serine/threonine-protein kinase (Homo sapiens) (UniProt Q9Y243); conditions: Compound concentration 1000.0 nM
[16] = target: Serine/threonine-protein kinase Sgk1 (Homo sapiens) (UniProt O00141); conditions: Compound concentration 1000.0 nM
[17] = target: Homeodomain-interacting protein kinase 2 (Homo sapiens) (UniProt Q9H2X6); conditions: Compound concentration 1000.0 nM
[18] = target: Tyrosine-protein kinase receptor Tie-1 (Homo sapiens) (UniProt P35590); conditions: Compound concentration 1000.0 nM
Tyrosine-protein kinase receptor Tie-1 (Homo sapiens), sequence (P35590 whole entry): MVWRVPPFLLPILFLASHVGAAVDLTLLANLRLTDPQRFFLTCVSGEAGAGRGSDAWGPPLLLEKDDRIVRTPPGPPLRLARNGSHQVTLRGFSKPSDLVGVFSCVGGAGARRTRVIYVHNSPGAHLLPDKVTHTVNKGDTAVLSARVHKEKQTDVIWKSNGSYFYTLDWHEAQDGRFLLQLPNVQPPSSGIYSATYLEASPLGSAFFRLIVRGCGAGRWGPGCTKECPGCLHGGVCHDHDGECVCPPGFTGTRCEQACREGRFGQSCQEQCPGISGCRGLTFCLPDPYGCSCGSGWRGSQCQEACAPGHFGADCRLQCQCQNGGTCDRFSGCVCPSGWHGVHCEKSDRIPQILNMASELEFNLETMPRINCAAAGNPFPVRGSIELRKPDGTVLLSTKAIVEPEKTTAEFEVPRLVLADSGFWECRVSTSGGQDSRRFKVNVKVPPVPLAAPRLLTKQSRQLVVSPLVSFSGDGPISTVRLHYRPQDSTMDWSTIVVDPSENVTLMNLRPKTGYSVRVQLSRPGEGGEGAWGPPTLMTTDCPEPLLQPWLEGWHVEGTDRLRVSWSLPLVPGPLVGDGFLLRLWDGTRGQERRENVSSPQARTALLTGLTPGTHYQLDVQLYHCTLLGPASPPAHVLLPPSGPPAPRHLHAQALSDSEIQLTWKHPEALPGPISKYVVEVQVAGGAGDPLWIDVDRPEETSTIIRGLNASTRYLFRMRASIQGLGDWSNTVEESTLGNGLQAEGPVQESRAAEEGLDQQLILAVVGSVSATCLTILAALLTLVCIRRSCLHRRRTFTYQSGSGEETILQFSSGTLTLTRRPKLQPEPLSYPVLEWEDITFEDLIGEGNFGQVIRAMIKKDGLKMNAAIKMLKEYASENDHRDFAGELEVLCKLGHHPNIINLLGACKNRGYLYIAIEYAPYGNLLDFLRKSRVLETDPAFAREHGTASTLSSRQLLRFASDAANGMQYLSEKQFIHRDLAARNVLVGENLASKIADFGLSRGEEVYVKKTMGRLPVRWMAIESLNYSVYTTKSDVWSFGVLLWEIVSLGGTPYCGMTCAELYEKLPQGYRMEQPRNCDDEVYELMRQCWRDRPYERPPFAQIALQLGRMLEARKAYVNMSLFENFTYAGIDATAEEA

[19] = target: MAP/microtubule affinity-regulating kinase 3 (Homo sapiens) (UniProt P27448); conditions: Compound concentration 1000.0 nM
[20] = test system: Tyrosine-protein kinase ABL1 (Homo sapiens), P00519 [M351T]; conditions: Compound concentration 1000.0 nM
[21] = target: SRSF protein kinase 2 (Homo sapiens) (UniProt P78362); conditions: Compound concentration 1000.0 nM
[22] = target: LIM domain kinase 2 (Homo sapiens) (UniProt P53671); conditions: Compound concentration 1000.0 nM
[23] = target: Mitogen-activated protein kinase kinase kinase 20 (Homo sapiens) (UniProt Q9NYL2); conditions: Compound concentration 1000.0 nM
[24] = target: Calcium/calmodulin-dependent protein kinase type 1D (Homo sapiens) (UniProt Q8IU85); conditions: Compound concentration 1000.0 nM
Calcium/calmodulin-dependent protein kinase type 1D (Homo sapiens), sequence (Q8IU85 whole entry, looked up): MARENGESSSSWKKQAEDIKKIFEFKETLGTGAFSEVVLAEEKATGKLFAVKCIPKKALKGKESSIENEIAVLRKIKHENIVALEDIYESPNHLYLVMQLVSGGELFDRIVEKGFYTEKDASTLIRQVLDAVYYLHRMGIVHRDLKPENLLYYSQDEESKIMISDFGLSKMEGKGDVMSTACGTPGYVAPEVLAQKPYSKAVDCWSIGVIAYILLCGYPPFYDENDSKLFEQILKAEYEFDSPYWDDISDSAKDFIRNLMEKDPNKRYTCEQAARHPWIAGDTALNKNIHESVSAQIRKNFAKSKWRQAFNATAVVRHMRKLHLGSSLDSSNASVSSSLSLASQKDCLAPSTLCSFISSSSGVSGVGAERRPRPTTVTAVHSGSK

[25] = target: Hormonally up-regulated neu tumor-associated kinase (Homo sapiens) (UniProt P57058); conditions: Compound concentration 1000.0 nM
[26] = target: Tyrosine-protein kinase Tec (Homo sapiens) (UniProt P42680); conditions: Compound concentration 1000.0 nM
Tyrosine-protein kinase Tec (Homo sapiens), sequence (P42680 whole entry): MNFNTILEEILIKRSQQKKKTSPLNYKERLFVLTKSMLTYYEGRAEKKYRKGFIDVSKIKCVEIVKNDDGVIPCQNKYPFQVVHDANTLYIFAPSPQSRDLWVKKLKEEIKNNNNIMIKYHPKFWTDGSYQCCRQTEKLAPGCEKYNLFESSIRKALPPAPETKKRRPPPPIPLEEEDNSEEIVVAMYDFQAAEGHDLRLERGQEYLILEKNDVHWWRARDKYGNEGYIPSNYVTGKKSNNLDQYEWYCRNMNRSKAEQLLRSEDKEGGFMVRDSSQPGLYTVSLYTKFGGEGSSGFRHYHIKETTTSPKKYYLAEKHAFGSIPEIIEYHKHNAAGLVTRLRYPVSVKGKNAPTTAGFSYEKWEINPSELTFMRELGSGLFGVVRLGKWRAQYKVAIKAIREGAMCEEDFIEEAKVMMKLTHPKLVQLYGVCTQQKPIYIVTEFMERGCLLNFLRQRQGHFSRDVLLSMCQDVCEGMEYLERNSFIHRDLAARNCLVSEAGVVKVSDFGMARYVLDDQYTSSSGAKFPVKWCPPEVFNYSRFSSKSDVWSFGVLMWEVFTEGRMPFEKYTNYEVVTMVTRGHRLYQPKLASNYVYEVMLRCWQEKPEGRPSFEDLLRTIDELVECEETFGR

[27] = test system: Epidermal growth factor receptor (Homo sapiens), P00533 [L858R,T790M]; conditions: Compound concentration 1000.0 nM
[28] = target: Bone morphogenetic protein receptor type-1B (Homo sapiens) (UniProt O00238); conditions: Compound concentration 1000.0 nM
Bone morphogenetic protein receptor type-1B (Homo sapiens), sequence (O00238 whole entry): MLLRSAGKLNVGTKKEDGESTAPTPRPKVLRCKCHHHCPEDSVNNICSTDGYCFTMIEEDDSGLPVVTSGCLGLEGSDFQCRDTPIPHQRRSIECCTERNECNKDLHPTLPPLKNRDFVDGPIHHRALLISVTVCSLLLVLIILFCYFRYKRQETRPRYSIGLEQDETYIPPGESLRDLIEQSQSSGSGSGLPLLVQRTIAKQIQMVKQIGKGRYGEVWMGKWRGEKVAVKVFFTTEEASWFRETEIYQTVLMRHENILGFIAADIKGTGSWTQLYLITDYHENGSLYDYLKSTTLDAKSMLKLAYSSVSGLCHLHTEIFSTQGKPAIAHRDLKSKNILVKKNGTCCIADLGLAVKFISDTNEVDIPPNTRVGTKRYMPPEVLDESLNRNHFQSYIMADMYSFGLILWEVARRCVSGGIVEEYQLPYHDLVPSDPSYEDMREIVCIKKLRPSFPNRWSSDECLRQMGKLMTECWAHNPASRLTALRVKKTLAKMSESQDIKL

[29] = target: Serine/threonine-protein kinase D2 (Homo sapiens) (UniProt Q9BZL6); conditions: Compound concentration 1000.0 nM
[30] = target: Rhodopsin kinase GRK1 (Homo sapiens) (UniProt Q15835); conditions: Compound concentration 1000.0 nM
[31] = target: Serine/threonine-protein kinase 32B (Homo sapiens) (UniProt Q9NY57); conditions: Compound concentration 1000.0 nM
[32] = target: Inhibitor of nuclear factor kappa-B kinase subunit epsilon (Homo sapiens) (UniProt Q14164); conditions: Compound concentration 1000.0 nM
[33] = target: Serine/threonine-protein kinase 26 (Homo sapiens) (UniProt Q9P289); conditions: Compound concentration 1000.0 nM
[34] = target: Serine/threonine-protein kinase Nek2 (Homo sapiens) (UniProt P51955); conditions: Compound concentration 1000.0 nM
Serine/threonine-protein kinase Nek2 (Homo sapiens), sequence (P51955 whole entry): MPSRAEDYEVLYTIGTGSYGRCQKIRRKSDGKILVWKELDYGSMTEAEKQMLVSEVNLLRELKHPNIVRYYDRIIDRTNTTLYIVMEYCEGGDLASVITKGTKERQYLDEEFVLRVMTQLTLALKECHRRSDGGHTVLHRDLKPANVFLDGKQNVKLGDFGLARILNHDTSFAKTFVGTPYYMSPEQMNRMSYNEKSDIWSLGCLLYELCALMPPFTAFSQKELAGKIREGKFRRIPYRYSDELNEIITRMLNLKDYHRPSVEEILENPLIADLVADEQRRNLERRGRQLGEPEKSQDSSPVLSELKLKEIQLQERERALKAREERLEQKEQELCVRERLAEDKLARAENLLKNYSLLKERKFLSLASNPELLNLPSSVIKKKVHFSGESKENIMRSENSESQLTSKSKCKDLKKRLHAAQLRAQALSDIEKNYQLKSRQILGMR

[35] = target: 3-phosphoinositide-dependent protein kinase 1 (Homo sapiens) (UniProt O15530); conditions: Compound concentration 1000.0 nM
[36] = target: Interleukin-1 receptor-associated kinase 1 (Homo sapiens) (UniProt P51617); conditions: Compound concentration 1000.0 nM
[37] = target: Myosin-IIIb (Homo sapiens) (UniProt Q8WXR4); conditions: Compound concentration 1000.0 nM
[38] = target: AP2-associated protein kinase 1 (Homo sapiens) (UniProt Q2M2I8); conditions: Compound concentration 1000.0 nM
[39] = target: Fibroblast growth factor receptor 3 (Homo sapiens) (UniProt P22607); conditions: Compound concentration 1000.0 nM

Ribosomal protein S6 kinase alpha-5 (Homo sapiens), sequence (O75582 whole entry, looked up): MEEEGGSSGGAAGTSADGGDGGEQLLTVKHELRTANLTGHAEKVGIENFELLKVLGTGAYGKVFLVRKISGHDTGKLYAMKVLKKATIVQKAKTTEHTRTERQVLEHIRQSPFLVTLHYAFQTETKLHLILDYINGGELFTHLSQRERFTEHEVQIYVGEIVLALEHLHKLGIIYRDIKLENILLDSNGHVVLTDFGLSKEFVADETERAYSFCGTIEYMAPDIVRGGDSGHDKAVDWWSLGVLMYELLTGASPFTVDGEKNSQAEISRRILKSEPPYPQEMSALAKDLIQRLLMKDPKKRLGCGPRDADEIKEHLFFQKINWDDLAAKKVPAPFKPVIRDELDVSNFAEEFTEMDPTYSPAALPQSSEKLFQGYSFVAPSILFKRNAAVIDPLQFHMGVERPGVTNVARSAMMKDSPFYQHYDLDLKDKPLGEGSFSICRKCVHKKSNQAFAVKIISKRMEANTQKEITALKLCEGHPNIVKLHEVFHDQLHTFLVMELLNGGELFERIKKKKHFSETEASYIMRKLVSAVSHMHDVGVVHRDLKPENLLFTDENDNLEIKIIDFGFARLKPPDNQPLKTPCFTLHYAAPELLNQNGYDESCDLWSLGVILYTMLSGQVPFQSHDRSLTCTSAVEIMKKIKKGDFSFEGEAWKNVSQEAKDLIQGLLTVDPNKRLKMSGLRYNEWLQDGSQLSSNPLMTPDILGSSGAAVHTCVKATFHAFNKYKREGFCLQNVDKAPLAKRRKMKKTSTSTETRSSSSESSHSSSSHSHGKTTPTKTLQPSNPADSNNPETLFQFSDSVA
Receptor-type tyrosine-protein kinase FLT3 (Homo sapiens), sequence (P36888 whole entry): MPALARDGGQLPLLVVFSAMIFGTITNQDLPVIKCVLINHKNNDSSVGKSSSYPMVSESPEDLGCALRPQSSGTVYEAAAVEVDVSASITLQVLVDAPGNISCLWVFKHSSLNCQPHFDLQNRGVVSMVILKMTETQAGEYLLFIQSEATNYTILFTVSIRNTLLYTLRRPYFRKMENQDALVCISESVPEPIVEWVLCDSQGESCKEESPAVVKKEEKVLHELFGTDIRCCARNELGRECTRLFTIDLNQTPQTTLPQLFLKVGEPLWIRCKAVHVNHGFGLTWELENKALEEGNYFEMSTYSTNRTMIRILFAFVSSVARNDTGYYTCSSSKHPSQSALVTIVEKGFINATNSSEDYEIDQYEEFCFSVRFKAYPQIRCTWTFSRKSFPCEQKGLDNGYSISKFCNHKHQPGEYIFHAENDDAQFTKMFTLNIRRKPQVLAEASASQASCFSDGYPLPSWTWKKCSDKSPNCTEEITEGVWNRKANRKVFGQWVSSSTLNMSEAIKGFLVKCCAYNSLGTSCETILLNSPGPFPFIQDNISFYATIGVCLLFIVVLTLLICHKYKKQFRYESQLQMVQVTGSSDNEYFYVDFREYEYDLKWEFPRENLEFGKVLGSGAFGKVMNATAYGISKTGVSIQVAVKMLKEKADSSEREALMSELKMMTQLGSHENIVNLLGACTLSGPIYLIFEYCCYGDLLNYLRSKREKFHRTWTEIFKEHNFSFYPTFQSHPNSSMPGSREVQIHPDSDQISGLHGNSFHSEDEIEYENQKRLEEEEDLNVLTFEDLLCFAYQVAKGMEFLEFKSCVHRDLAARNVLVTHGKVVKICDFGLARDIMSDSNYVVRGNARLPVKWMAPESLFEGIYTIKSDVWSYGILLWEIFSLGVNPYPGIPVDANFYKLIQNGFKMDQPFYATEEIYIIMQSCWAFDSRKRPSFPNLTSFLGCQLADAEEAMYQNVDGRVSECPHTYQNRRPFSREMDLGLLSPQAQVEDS

Compound | residual activity [1] [%] | residual activity [2] [%] | residual activity [3] [%] | inhibition [4] [%] | residual activity [5] [%] | residual activity [6] [%] | residual activity [7] [%] | residual activity [8] [%] | Ki [9] [nM] | residual activity [10] [%] | residual activity [11] [%] | inhibition [12] [%] | residual activity [13] [%] | residual activity [14] [%] | residual activity [15] [%] | residual activity [16] [%] | residual activity [17] [%] | residual activity [18] [%] | residual activity [19] [%] | residual activity [20] [%] | further results
Cc1c(C(=O)O)cc(-c2ccc(C3CCNCC3)cc2)c2ccc(-c3ccc(C(F)(F)F)cc3)cc12 [PPTN-NC] | 72 | 100 | 100 | 46.7 | 100 | 100 | 100 | 84 | 1170 | 100 | 100 | 4.62 | 100 | 100 | 100 | 100 | 100 | 100 | 100 | 100 | residual activity [21]: 82%; residual activity [22]: 100%; residual activity [23]: 100%; residual activity [24]: 100%; residual activity [25]: 100%; residual activity [26]: 100%; residual activity [27]: 100%; residual activity [28]: 100%; residual activity [29]: 100%; residual activity [30]: 100%; residual activity [31]: 100%; residual activity [32]: 100%; residual activity [33]: 100%; residual activity [34]: 100%; residual activity [35]: 100%; residual activity [36]: 100%; residual activity [37]: 75%; residual activity [38]: 100%; residual activity [39]: 100%
O=C(O)c1cc(-c2ccc(C3CCNCC3)cc2)c2ccc(-c3ccc(C(F)(F)F)cc3)cc2c1 [PPTN] | 62 | 100 | 90 | 65.6 | 100 | 100 | 100 | 83 | 1180 | 100 | 100 | 4.14 | 100 | 100 | 100 | 100 | 100 | 100 | 100 | 100 | residual activity [21]: 100%; residual activity [22]: 100%; residual activity [23]: 100%; residual activity [24]: 100%; residual activity [25]: 100%; residual activity [26]: 100%; residual activity [27]: 100%; residual activity [28]: 100%; residual activity [29]: 100%; residual activity [30]: 100%; residual activity [31]: 100%; residual activity [32]: 100%; residual activity [33]: 100%; residual activity [34]: 100%; residual activity [35]: 100%; residual activity [36]: 100%; residual activity [37]: 69%; residual activity [38]: 100%; residual activity [39]: 100%
